Test results reported in patent US20260138961A1, “MODULATORS OF MITOCHONDRIAL DNA REPLICATION” (Pretzel Therapeutics, Inc., priority 2022, published 2026).

Molecular target: T1, POLγA:A467T (Homo sapiens, UniProt P54098, A467T)
T1 sequence (P54098 1-1239 A467T): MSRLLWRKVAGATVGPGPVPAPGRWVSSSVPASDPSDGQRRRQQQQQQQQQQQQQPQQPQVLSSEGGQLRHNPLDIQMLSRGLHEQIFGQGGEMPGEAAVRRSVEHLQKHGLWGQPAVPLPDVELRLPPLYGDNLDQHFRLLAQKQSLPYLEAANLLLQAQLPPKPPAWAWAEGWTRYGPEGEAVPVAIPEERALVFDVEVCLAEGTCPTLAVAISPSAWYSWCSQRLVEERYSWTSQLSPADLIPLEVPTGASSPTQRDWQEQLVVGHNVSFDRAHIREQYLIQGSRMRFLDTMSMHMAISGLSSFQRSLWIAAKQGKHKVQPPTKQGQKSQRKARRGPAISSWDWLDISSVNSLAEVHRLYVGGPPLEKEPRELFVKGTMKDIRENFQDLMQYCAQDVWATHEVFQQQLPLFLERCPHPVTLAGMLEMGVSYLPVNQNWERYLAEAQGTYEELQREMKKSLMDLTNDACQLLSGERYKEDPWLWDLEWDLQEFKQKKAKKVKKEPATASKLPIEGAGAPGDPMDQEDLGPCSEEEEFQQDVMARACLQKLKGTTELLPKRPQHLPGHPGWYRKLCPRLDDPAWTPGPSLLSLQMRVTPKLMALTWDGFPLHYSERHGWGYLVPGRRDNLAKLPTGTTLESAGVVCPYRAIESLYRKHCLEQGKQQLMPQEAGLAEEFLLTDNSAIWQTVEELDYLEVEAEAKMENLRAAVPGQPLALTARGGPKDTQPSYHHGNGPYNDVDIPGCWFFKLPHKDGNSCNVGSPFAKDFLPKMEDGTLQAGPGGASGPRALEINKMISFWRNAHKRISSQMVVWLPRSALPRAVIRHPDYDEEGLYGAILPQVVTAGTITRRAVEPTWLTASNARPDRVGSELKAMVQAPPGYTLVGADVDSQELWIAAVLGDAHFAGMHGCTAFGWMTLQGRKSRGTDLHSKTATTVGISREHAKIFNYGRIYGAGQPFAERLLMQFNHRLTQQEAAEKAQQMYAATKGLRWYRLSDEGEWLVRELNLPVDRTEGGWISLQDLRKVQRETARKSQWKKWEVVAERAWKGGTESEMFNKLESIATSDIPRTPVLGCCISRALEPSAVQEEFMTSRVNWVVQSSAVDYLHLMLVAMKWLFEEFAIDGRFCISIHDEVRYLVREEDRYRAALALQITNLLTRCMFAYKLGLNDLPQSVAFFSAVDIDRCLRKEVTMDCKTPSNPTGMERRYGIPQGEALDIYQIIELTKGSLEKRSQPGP
T1 sequence (Q9UHN1 1-485 partner): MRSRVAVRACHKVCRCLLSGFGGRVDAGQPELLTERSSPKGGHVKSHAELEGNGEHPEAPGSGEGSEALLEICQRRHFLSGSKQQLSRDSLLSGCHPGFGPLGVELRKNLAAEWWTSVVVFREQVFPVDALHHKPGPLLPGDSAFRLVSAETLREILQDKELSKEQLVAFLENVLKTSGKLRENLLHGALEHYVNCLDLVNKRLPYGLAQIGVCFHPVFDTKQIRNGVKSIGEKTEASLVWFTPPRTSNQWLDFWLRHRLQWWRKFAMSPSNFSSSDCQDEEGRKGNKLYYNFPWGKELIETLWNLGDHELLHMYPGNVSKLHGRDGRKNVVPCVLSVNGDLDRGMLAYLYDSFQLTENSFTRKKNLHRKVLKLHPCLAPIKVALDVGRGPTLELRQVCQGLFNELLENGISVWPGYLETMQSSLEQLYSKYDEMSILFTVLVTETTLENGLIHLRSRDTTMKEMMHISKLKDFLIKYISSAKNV
Experiment: DNA polymerization assay, POLγA:A467T mutant
Type: biochemical
Details: stimulation of polymerase activity, primed M13mp18 ssDNA, 37° C. 2 hours; read-out: A467T AC50
Description: DNA Polymerization Assay to Monitor Effects on Human Wildtype POLγ and Four Disease-Causing Mutant Variants of Human POLγ.
The ability of small molecules to stimulate the polymerase activity of POLγ was analyzed in a quantitative fluorescence SYBR Green I assay with fluorescence intensity (FI) readout.
In the presence of dNTPs, wild type human POLγ and mutant derivatives thereof were incubated with single-stranded, circular M13mp18 ssDNA hybridized to a short DNA oligonucleotide that functions as a primer for initiation of DNA synthesis. POLγ and mutant derivatives thereof will extend the primer and use the M13mp18 molecule as a template to synthesize long stretches of double-stranded DNA. SYBR Green I, which is a double-stranded DNA-binding dye, was used to quantify formation of double-stranded DNA in the reaction. When bound to double-stranded DNA, SYBR Green I fluorescence increases by up to 100-fold.
The assay was performed in the 384-well plate format. Upon addition of compounds, changes in double-stranded DNA synthesis activity can be monitored by following effects on fluorescent intensity.
The reactions also contained the accessory POLγB subunit, and the human mitochondrial single-stranded DNA binding protein (mtSSB).
The DNA template mixture used in the assay contained 0.5 nM primed M13 mp18 ssDNA, 400 nM mtSSB, 0.1 mM Tris-HCl (pH 8.0), 0.1 mM dNTP, 10 mM MgCl2, 0.1 mg/mL BSA, 1 mM TCEP solution, and 0.02% Triton X-100. The DNA template mixture for the wild type protein contained either 100 μM dNTP, 1 μM dNTP, or 0.1 μM dNTP, designated in Table 2 as 100 μM, 1 μM, and 0.1 μM, respectfully.
Microplates with compounds (0.1 μL in each well) to be tested in the assay were prepared from 10 mM compound stocks in 100% DMSO, and equal amounts of DMSO without any compound were added to positive and negative control wells.
The protein mixture was dispensed (5 μL into each well) into compound plates and incubated at 37° C. for 15 minutes. After incubation, 5 μL of the DNA template mixture was dispensed into each well. The plates were then incubated at 37° C. for 2 hours.
During incubation, a combined stop buffer and detection reagent solution was prepared. The buffer contained 25 mM EDTA (pH 8.0), 0.02% Triton X-100, and SYBR Green I [Invitrogen] diluted 10,000× (for fluorescent readout). EDTA will stop the enzymatic reaction by chelating magnesium ions.

AC50 [µM] | SMILES
95 | Cc1ccc(C)c(S(=O)(=O)Nc2cccc(C(=O)N3CCCC[C@@H]3C)c2)c1 [Example 6, (S)-2,5-dimethyl-N-(3-(2-methylpiperidine-1-carbonyl)phenyl)benzenesulfonamide]
60 | Cc1ccc(C)c(S(=O)(=O)Nc2cccc(C(=O)N3CCCCC3C#N)c2)c1 (stereo not shown) [Example 2, N-(3-(2-cyanopiperidine-1-carbonyl)phenyl)-2,5-dimethylbenzenesulfonamide]
> 100 | Cc1cc(S(=O)(=O)Nc2cccc(-c3ncc(-c4nnn[nH]4)s3)c2)c(C)cc1Cl [Example 97, N-(3-(5-(1H-tetrazol-5-yl)thiazol-2-yl)phenyl)-4-chloro-2,5-dimethylbenzenesulfonamide]
> 100 | Cc1cnc(-c2cc(NS(=O)(=O)c3cc(C)c(Cl)cc3C)ccc2C)s1 [Example 103, 4-chloro-2,5-dimethyl-N-(4-methyl-3-(5-methylthiazol-2-yl)phenyl)benzenesulfonamide]
> 100 | Cc1cc(S(=O)(=O)Nc2nsc(-c3ccccc3)n2)c(C)cc1Cl [Example 131, 4-chloro-2,5-dimethyl-N-(5-phenyl-1,2,4-thiadiazol-3-yl)benzenesulfonamide]
11 | Cc1cc(S(=O)(=O)Nc2cccc(-c3nccn3C)c2)c(C)cc1Cl [Example 19, 4-chloro-2,5-dimethyl-N-(3-(1-methyl-1H-imidazol-2-yl)phenyl)benzenesulfonamide]
> 100 | Cc1cc(S(=O)(=O)Nc2cccc(C(=O)N(C(C)C)C3COC3)c2)c(C)cc1Cl [Example 112, 3-((4-chloro-2,5-dimethylphenyl)sulfonamido)-N-isopropyl-N-(oxetan-3-yl)benzamide]
> 100 | Cc1cc(S(=O)(=O)Nc2cccc(C(=O)N3CCc4ncnc(C)c4C3)c2)c(C)cc1Cl [Example 114, 4-chloro-2,5-dimethyl-N-(3-(4-methyl-5,6,7,8-tetrahydropyrido [4,3-d]pyrimidine-6-carbonyl)phenyl)benzenesulfonamide]
> 100 | O=S(=O)(Nc1csc(-c2ccccc2)n1)c1ccc(Cl)cc1 [Example 120, 4-chloro-N-(2-phenylthiazol-4-yl)benzenesulfonamide]
> 100 | Cc1cc(S(=O)(=O)Nc2cccc(C(=O)N3CCC[C@@H]3C)c2)c(C)cc1Cl [Example 133, (S)-4-chloro-2,5-dimethyl-N-(3-(2-methylpyrrolidine-1-carbonyl)phenyl)benzenesulfonamide]
> 100 | Cc1cc(S(=O)(=O)N[C@H]2CCCN(C(=O)[C@H]3CCCN3C)C2)c(C)cc1Cl [Example 95, 4-chloro-2,5-dimethyl-N-((S)-1-(methyl-D-prolyl)piperidin-3-yl)benzenesulfonamide]
> 100 | Cc1cc(S(=O)(=O)N[C@@H]2CCCN(c3ccccc3)C2)c(C)cc1Cl [Example 149, (R)-4-chloro-2,5-dimethyl-N-(1-phenylpiperidin-3-yl)benzenesulfonamide]
> 100 | Cc1cc(S(=O)(=O)N[C@@H]2CCCN(C(=O)c3ccccc3)C2)c(C)cc1Cl [Example 150, (R)-N-(1-benzoylpiperidin-3-yl)-4-chloro-2,5-dimethylbenzenesulfonamide]
> 100 | O=S(=O)(Nc1csc(-c2ccccc2)n1)c1ccc2c(c1)CCO2 [Example 152, N-(2-phenylthiazol-4-yl)-2,3-dihydrobenzofuran-5-sulfonamide]
> 100 | Cc1cc(S(=O)(=O)Nc2nc(-c3ccccc3)ns2)c(C)cc1Cl [Example 132, 4-chloro-2,5-dimethyl-N-(3-phenyl-1,2,4-thiadiazol-5-yl)benzenesulfonamide]
> 100 | Cc1nc2c(NS(=O)(=O)c3cc(C)c(Cl)cc3C)cccc2s1 [Example 99, 4-chloro-2,5-dimethyl-N-(2-methylbenzo[d]thiazol-4-yl)benzenesulfonamide]
> 100 | Cc1cc(F)ccc1S(=O)(=O)Nc1csc(-c2ccccc2)n1 [Example 124, 4-fluoro-2-methyl-N-(2-phenylthiazol-4-yl)benzenesulfonamide]
> 100 | Cc1cc(S(=O)(=O)Nc2cccc(-c3ncc(C(N)=O)s3)c2)c(C)cc1Cl [Example 92, 2-(3-((4-chloro-2,5-dimethylphenyl)sulfonamido)phenyl) thiazole-5-carboxamide]
> 100 | Cc1cc(S(=O)(=O)Nc2cccc(C(=O)N3CCCC4(CC4)C3)c2)c(C)cc1Cl [Example 105, N-(3-(5-azaspiro[2.5]octane-5-carbonyl)phenyl)-4-chloro-2,5-dimethylbenzenesulfonamide]
32 | Cc1cc(Cl)ccc1S(=O)(=O)Nc1csc(-c2ccccc2)n1 [Example 135, 4-chloro-2-methyl-N-(2-phenylthiazol-4-yl)benzenesulfonamide]
> 100 | O=S(=O)(Nc1csc(-c2ccccc2)n1)c1ccc(Cl)cc1Cl [Example 138, 2,4-dichloro-N-(2-phenylthiazol-4-yl)benzenesulfonamide]
> 100 | O=S(=O)(Nc1csc(-c2ccccc2)n1)c1cccnc1 [Example 121, N-(2-phenylthiazol-4-yl)pyridine-3-sulfonamide]
> 100 | Cc1cc(S(=O)(=O)Nc2cccc(C(=O)N3C[C@H](C)[C@@H](N)C3)c2)c(C)cc1Cl [Example 108, N-(3-((3R,4S)-3-amino-4-methylpyrrolidine-1-carbonyl)phenyl)-4-chloro-2,5-dimethylbenzenesulfonamide]
> 100 | Cc1cc(S(=O)(=O)Nc2cccc(C(=O)N3CCC[C@H]3C)c2)ccc1Cl [Example 117, (R)-4-chloro-3-methyl-N-(3-(2-methylpyrrolidine-1-carbonyl)phenyl)benzenesulfonamide]
28 | Cc1cc(S(=O)(=O)Nc2cccc(C(=O)N(C)C(C)CO)c2)c(C)cc1Cl (single isomer, unassigned) [Example 14, 3-((4-chloro-2,5-dimethylphenyl)sulfonamido)-N-(1-hydroxypropan-2-yl)-N-methylbenzamide]
